Columns and labels:
[1] = target: T1, E-selectin (Homo sapiens) (UniProt P16581); assay: Compound was evaluated for in vitro affinity towards Selectin E, activity expressed as IC50 relative to Sialyl lewisX
T1 sequence (whole entry): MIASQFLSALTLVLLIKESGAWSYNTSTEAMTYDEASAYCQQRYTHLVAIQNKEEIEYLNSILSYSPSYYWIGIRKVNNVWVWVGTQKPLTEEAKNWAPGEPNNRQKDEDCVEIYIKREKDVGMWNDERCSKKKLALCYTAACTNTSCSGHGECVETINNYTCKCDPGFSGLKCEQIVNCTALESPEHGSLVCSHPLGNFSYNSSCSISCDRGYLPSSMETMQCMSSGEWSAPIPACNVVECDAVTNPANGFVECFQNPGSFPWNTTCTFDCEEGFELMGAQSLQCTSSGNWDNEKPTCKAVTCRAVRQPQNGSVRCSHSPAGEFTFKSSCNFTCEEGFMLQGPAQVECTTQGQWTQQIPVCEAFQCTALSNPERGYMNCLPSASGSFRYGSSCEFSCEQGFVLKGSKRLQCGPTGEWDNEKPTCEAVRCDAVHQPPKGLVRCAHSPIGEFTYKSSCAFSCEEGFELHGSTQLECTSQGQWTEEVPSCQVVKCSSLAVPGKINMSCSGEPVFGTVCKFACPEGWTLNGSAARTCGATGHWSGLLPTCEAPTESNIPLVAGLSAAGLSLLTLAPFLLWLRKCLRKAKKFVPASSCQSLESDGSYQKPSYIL

[2] = target: T1, E-selectin (Homo sapiens); assay: Compound was evaluated for in vitro affinity towards Selectin E

RIC50 [1]	RIC50 [2]	Compound
0.39	–	O=C(O)CC[C@@H]1O[C@@H](O[C@@H]2CCCC[C@H]2O[C@@H]2O[C@@H](CO)[C@H](O)[C@H](O[C@@H](Cc3ccccc3)C(=O)O)[C@@H]2O)[C@@H](O)[C@@H](O)[C@@H]1O
2.8	–	O=C1CC[C@@H]2O[C@@H](O[C@@H]3CCCC[C@H]3O[C@@H]3O[C@@H](CO)[C@H](O)[C@H](O[C@@H](Cc4ccccc4)C(=O)O)[C@H]3O1)[C@@H](O)[C@@H](O)[C@@H]2O
–	1	COC(=O)CCCCCCCCO[C@@H]1O[C@@H](CO)[C@@H](O[C@@H]2O[C@@H](CO)[C@H](O)[C@H](O[C@]3(C(=O)O)C[C@@H](O)[C@@H](NC(C)=O)[C@H]([C@H](O)[C@H](O)CO)O3)[C@@H]2O)[C@H](O[C@@H]2O[C@@H](C)[C@@H](O)[C@H](O)[C@@H]2O)[C@@H]1NC(C)=O
